One assay concerns HT-29. Put plainly: Cytotoxicity against human HT-29 cells by MTT assay. Format: functional, cell-based. (In general: Tetrazolium dyes change colour on reduction, which living cells bring about.)
The next assay concerns A549. Kind of assay: Cytotoxicity against human A549 cells by MTT assay. In kind it is functional, cell-based.

For 5 molecules, IC50 results are on record in ChEMBL document CHEMBL1150886, “Cytotoxic compounds from the roots of Juglans mandshurica” (J Nat Prod, 1998).

One may read the IC50 as the concentration at which inhibition is half-maximal. A low value points to inhibition by little substance.

The structures appear in SMILES notation. Values after ≈ are worked out from the molar mass of the structure shown.

Turning to `COc1cc(C(=O)OC[C@H]2O[C@@H](Oc3ccc(O)c4c3C(O)CCC4=O)[C@H](O)[C@@H](O)[C@@H]2O)cc(OC)c1O` (some centres undefined), the IC50 in the assay on HT-29 and with A549 was > 50 mg/L each time.

Consider `COC(=O)c1cc(O[C@H]2O[C@@H](CO)[C@H](O)[C@@H](O)[C@@H]2O)c2c(O)cccc2c1O`, for which the IC50 was 8.06 mg/L (≈ 20.3 µM) in the assay with HT-29 and 7.79 mg/L (≈ 19.7 µM) with A549. The matching figures for `COC1=CC(=O)c2c(O)cccc2C1=O`: 2.63 mg/L (≈ 12.9 µM) and 0.08 mg/L (≈ 0.392 µM). With `COc1cc2ccc1Oc1cc(ccc1O)CC(O[C@@H]1O[C@H](CO)[C@@H](O)[C@H](O)[C@H]1O)C(=O)CCCC2` (some centres undefined), the IC50 in the assay on HT-29 and with A549 was > 50 mg/L each time. Consider `COC(=O)C(O)(c1cc2c(c3oc([C@]4(C)C[C@@H]4C)cc(=O)c13)C(=O)c1c(ccc([C@H]3C[C@](C)(N(C)C)[C@H](O[C@@H]4C[C@H](OC)[C@H](O)[C@@H](C)O4)[C@H](C)O3)c1O)C2=O)[C@H]1O[C@H](C)[C@@H](O)[C@@H](OC)[C@@H]1O` (some centres undefined) [ALTROMYCIN B], for which the IC50 with HT-29 worked out at 3.98 mg/L (≈ 4.31 µM).
